Measurements as given in patent EP0434750B1 (priority 1988, dated 1990).
Several values for one entry are separate records, joined by “and”; a condition that tells them apart may be missing. Identical values can stand only once. Like-named read-outs stand apart in the source and are kept apart here.

Columns and labels:
[1] = system: crude striatal synaptosomal suspensions; assay: In vitro accumulation of [3H]DA by crude striatal synaptosomal suspensions; assay type: biochemical, mice
Description: (§1) All other studies are performed in C57 black mice.
The in vitro accumulation of [^3H]DA by crude striatal synaptosomal suspensions is measured using the method of Snyder, S.H. et al., J.Pharmacol.Exp.Ther. 165, 78 (1968) with minor modifications. Briefly, crude synaptosomal suspensions are prepared by homogenizing striatal tissue in 50 vols. (w/v) of ice-cold 0.32 M sucrose, then centrifuging the homogenate for 10 minutes at 1,000 x g. […] After vortexing, tubes (except temperature blanks) are incubated in a waterbath at 37°C for five minutes, then returned to ice. Synaptosomes are harvested by filtration. Filters are rinsed twice with 5 ml aliquots of physiological saline. Radioactivity in the filters is quantified by liquid scintillation spectroscopy. Assays are performed in sextuplicate at each DA concentration, with half of the samples serving as blanks. Active uptake is defined as the difference between [^3H]DA (PM/mg tissue/5 min.) incubation at 37°C after correction for uptake at 0-4°C.

[2] = system: C57 black mice; assay: Striatal DA, DOPAC and HVA content in mice after MPTP; assay type: in vivo
Description: Male C57BL/6J IMR mice 6-8 weeks of age are used throughout except in one experiment (see below) in which CB6F1 [(BALB/cByJ IMR x C57BL/gJ IMR)F1] mice of a similar age are used. Mice are housed five per cage in plexiglass cages with free access to food and water in a colony room maintained at 23 ± 1°C. Fluorescent lighting in the room is automatically turned on at 06.00 hours and off at 18.00 hours.
as §1
The mouse striatum is obtained by placing the brain on its dorsal surface and making two coronal cuts; the first at the caudal end of the olfactory bulbs, the second at the level of the optic chiasma. After placing the resulting brain slice on its rostral surface, one horizontal cut is made just below the corpus callosum and another just above the anterior commissure. Remaining parietotemporal cortex is trimmed away using the external capsule as a landmark. Septal tissue lying between the caudate nuclei is removed by cutting along the tissue planes created by the frontal horns of the lateral ventricles. Striatal tissue thus isolated weighs approximately 20 mg per animal. Immediately after dissection, tissue is wrapped in aluminum foil and stored in liquid nitrogen until assay, with the exception of tissue for uptake studies which is used immediately.
The striatum is weighed, placed in a tube containing 1 ml of 0.4 normal perchloric acid, then homogenized with a Beckman polytron at a setting of 5 for 10 seconds. The homogenate is centrifuged at approximately 20,000 x g for 15 minutes. Concentrations of dopamine (DA), DOPAC and HVA in the supernatant are determined by reverse-phase liquid chromatography coupled with electrochemical detection according to the method of Mayer, G.S. et al., J. Chromatogr. 255, 533 (1983), with minor modifications. The mobile phase is prepared by mixing 965 ml of 0.15 M monochloroacetic acid with 35 ml of acetonitrile and adding 193 mg of sodium octyl sulfate. This solution is filtered and degassed and then 18 ml of tetrahydrofuran are added. Using this mobile phase at a flow rate of 1.3 ml/min, DA, DOPAC and HVA are resolved using a 4.6 mm x 25 cm C-18, 5 µ column (Brownless Labs). Detection and quantitation are performed using a dual series electrode detector (Coulochem Model 5100, Environmental Systems Associates, Wiggins, Mass.). Electrode potentials are set at +0.4 V (electrode 1) and -0.3 V (electrode 2). The response on electrode 2 is monitored (10 mV strip chart recorder) and used for quantitation relative to peak heights of known amounts of standards.

[3] = system: monkeys (Macaca fascicularis); assay: Neurological examination of MPTP-treated monkeys with or without chloroquine pretreatment; assay type: in vivo; conditions: individual monkeys
Text: Four animals are naive controls. […] TABLE 3

[4] = system: C57 black mice; assay: Silver degeneration study of striatal nerve terminals (Fink-Heimer); assay type: in vivo; conditions: MPTP 20 mg/kg/h x 4, killed one day later
Description: Nerve terminal degeneration studies are performed using the method of Fink, R.P. et al., Brain Research 4, 369 (1967) (Procedure 1). This method makes possible selective silver impregnation of degenerating nerve fibers and terminals. Mice for these studies are killed under sodium pentobarbital anesthesia (40 mg/kg) by transcardial perfusion with 10% formal saline. The brain is immediately removed and stored in perfusion fluid at 0-4°C for at least one week before being sectioned on a freezing microtomee. 30 µm coronal sections are collected in 5% formal saline, then stained with silver according to Fink et al., supra.
Some fine granular degeneration is also found in the nucleus accumbens and olfactory tubercle, but in these regions it was much less dense. No such degeneration is found in identically treated sections of control mice, or in other brain regions visible in coronal brain sections at the level of the striatum.

[5] = system: C57 black mice; assay: Lethality of MPTP regimens in mice; assay type: in vivo; conditions: 2.5, 5 and 10 mg/kg/h x 4 MPTP regimens
Description: as §1
(§2) Approximately 20% of the mice die after the 20 mg/kg/h x 4 regimen. […]

[6] = Lethality of MPTP regimens in mice; assay type: in vivo; conditions: mouse, in vivo, ip
Description: as §1, §2

[7] = molecular target: [^3H]mazindol binding site, striatal membranes (Mus musculus, UniProt Q61327); conditions: three weeks after MPTP 20 mg/kg/h x 4
Description: This group is used only for anatomical studies looking for cell loss in the substantive nigra cells (SNc). All other studies are performed in C57 black mice.

[8] = one week after MPTP 20 mg/kg/h x 4
[9] = three months after MPTP 20 mg/kg/h x 4

[^3H]mazindol binding site, striatal membranes, sequence (Q61327 whole entry): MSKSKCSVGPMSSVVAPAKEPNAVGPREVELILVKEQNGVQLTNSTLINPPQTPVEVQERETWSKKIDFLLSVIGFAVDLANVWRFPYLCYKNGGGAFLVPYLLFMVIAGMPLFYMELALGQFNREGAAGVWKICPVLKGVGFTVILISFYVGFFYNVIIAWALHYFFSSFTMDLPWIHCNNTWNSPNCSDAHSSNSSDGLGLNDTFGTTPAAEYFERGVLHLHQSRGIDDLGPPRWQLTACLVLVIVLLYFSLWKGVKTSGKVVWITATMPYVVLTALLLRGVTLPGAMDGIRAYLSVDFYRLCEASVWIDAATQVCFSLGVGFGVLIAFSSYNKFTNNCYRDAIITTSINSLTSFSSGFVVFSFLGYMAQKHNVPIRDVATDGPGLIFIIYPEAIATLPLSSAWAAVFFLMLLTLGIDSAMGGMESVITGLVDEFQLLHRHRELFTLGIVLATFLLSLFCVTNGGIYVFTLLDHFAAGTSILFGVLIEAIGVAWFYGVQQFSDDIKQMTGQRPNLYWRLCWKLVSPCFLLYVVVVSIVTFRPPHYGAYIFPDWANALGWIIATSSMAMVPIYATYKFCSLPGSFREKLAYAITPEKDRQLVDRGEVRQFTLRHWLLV

CN1CC=C(c2ccccc2)CC1 [MPTP, 1-Methyl-4-phenyl-1,2,5,6-tetrahydropyridine]
Vmax of [^3H]DA striatal uptake, % of control [1, 8]: 37 % of control
decrease of Vmax of striatal synaptosomal [^3H]DA uptake [1, 8]: 62%
Vmax of [^3H]DA uptake ([1]; one week after MPTP 20 mg/kg/h x 4, control 5540 ± 480): 2080 ± 305 cpm[^3H]DA/mg tissue/5 min
Km ([1]; striatal synaptosomes of mice one week after MPTP 20 mg/kg/h x 4, read-out: Km(µm) of [^3H]DA uptake): 0.12 ± 0.02 µM
Vmax of [^3H]DA striatal uptake, % of control [1, 9]: 79 % of control
Vmax of [^3H]DA striatal uptake ([1]; three months after MPTP, control 6238 (± 520)): 4928 (± 408) CPM [^3H]DA/mg tissue/5 min
striatal DA level, % of control ([2]; 15 months after MPTP 20 mg/kg/h x 4): 69 % of control
striatal concentration of DOPAC ([2]; MPTP 20 mg/kg/h x 4, control 0.96 (±0.14)): 0.28 (±0.02) µg/g
striatal concentration of HVA ([2]; MPTP 20 mg/kg/h x 4, control 1.38 (±0.05)): 0.60 (±0.06) µg/g
DA ([2]; mouse striatum one week after MPTP 20 mg/kg/h x 4 i.p.): 2.8 ± 0.5 µg/g
DA ([2]; mouse striatum one week after MPTP 30 mg/kg/day x 10 i.p.): 3.5 ± 0.3 µg/g
% Depletion of striatal DA [2, 8]: 74%
HVA, % of control [2, 8]: 43 % of control
striatal DA level, % of control [2, 8]: 28 % of control
% Depletion of striatal DA ([2]; one week after MPTP 30 mg/kg/day x 10): 67%
HVA, % of control [2, 9]: 80 % of control
depletion of striated DA [2, 9]: 34%
HVA ([2]; three months after MPTP, control 1.36 ± 0.11): 1.09 ± 0.04 µg/g
DOPAC ([2]; three months after MPTP, controls 1.53 ±0.09 µg/g): 1.03 ± 0.03 µg\g
Neurological Status: Spontaneous Movement ([3]; MPTP alone 0.35 mg per kg i.v. daily for four days, control score 10): 1
Neurological Status: Total (x 5.26) ([3]; MPTP alone, control 100): 16 and 29 and 8
Neurological Status: Reflexes ([3]; MPTP alone, control score 2): 0.5 and 1.5 and 0
Neurological Status: Tone ([3]; MPTP alone, control score 2): 0.5 (2×) and 2
Neurological Status: Tremor ([3]; MPTP alone, control score 5): 1 (2×) and 0
fine granular argyrophilic debris in striata [4]: Three of three mice
lethality [5]: No lethality
mortality ([6]; 20 mg/kg/h x 4 regimen, read-out: mice that die): ~20%
mortality ([6]; read-out: animals killed): > 50%
reduction of Bmax of [^3H]mazindol binding sites [7]: 44%
Bmax of [^3H]mazindol binding ([7]; control 361): 201 pmol/g tissue
